According to patent US6716428B1, “Antigenic modification of polypeptides” (The Ohio State University Research Foundation, priority 1999, dated 2004):
Where two headings read alike, the source gives them in different places. Ends that are not written are not given here.

What was measured:
[1] = system: peptide used in the conjugate (Structure (II), (XII), (XIV), (X)); assay: Antibody level to the peptide of the conjugate in immunized mice (^125I antigen, double antibody technique); assay type: in vivo; details: 52 days
HCG [2] = assay: Antibody level to HCG in immunized mice (^125I antigen, double antibody technique); assay type: in vivo; details: 52 days
HCG [3] = assay type: in vivo, rabbit
female baboons = assay: Fertility rates (matings and pregnancies) of immunized female baboons; assay type: in vivo, baboon; details: female baboons
Friends' Leukemia Virus = assay: Survival of immunized SJL/J mice inoculated with Friends' Leukemia Virus; assay type: in vivo; set-up: concentration or dose not given beside the values
From the text: The mice used in this experiment were six-week old female mice of SJL/J strain. A test group and a control group, each containing approximately 20 mice were selected at random and were immunized in the same manner as in Example XXXVI above, the test animals receiving the vaccine containing the peptide/diphtheria toxoid conjugate and the control group receiving the vaccine containing only the vehicle. However, in this experiment a different immunization schedule was followed: the original immunization was followed by booster immunizations 4, 9, 20 and 29 weeks later. Six weeks after the first immunization (i.e. two weeks after the second immunization) each mouse was injected with approximately 1 million Friends' Leukemia Virus and the mice were observed daily for deaths.

[4] = system: Ridgeway Osteogenic Sarcoma; assay: Growth of Ridgeway Osteogenic Sarcoma in immunized AKR mice; assay type: in vivo
From the text: Sixty mice of the AKR strain were divided at random into a test group and a control group each comprising 30 mice. The test group were then immunized in the same manner as in Examples XXXVI and XXXVII with a vaccine comprising the same conjugate as in those Examples dissolved in Freund's Complete Adjuvant, while the control group simply received the Freund's Adjuvant. Booster Immunizations were given to each group three and seven weeks after the first immunization. […] In the mice in which the tumor survived, tumor volume measurements were made 22, 26, 29, 31, 33, 38, 40 and 43 days after innoculation with the Sarcoma. […] Nevertheless, the results in Table 27 do show a significant reduction in the rate of tumor growth in the conjugate-immunized mice.

`CC(=O)N[C@H]1C(O)O[C@H](CO)[C@@H](O)[C@@H]1OCC(=O)N[C@@H](C)C(=O)N[C@H](CCC(=O)O)C(N)=O` (stereo partly shown) [CGP 11637, NAc-nor Mur-L. Ala-D. iso Gln] was tested, and the “Antibody level to Structure (XII)” value [1] was 70.9 ng/mL, the “Antibody level to Structure (XII)” value ([1]; C3H/He mice, same conjugate) was 84.0 ng/mL and the “Antibody level to Structure (XII)” value ([1]; DBA/1 mice, same conjugate) was 42.5 ng/mL. The “Antibody level to Structure (XII)” value ([1]; SJL mice, same conjugate) was 60.1 ng/mL, the “Antibody level to CG” value (HCG [2]) was 18.3 ng/mL and the “Antibody level to CG” value (HCG [2]; C3H/He mice, same conjugate) was 21.5 ng/mL. The “Antibody level to CG” value (HCG [2]; DBA mice, same conjugate) was 10.6 ng/mL, the “Antibody level to CG” value (HCG [2]; SJL mice, same conjugate) was 13.8 ng/mL and the “Mean Antibody Level-^125I-HCG” value (HCG [3]; as E193, 4 weeks) was 177.8 M/L × 10^10. The “Mean Antibody Level-^125I-HCG” value (HCG [3]; as E193, 5 weeks) was 211.9 M/L × 10^10, the “Mean Antibody Level-^125I-HCG” value (HCG [3]; as E193, 6 weeks) was 297.2 M/L × 10^10 and the “Mean Antibody Level-^125I-HCG” value (HCG [3]; as E193, 7 weeks) was 381.2 M/L × 10^10. For the same compound, the “Mean Antibody Level-^125I-HCG” value (HCG [3]; as E193, 8 weeks) was 418.6 M/L × 10^10, the “Mean Antibody Level-^125I-HCG” value (HCG [3]; as E193, 9 weeks) was 480.0 M/L × 10^10 and the “Mean Antibody Level-^125I-HCG” value (HCG [3]; as E193, 10 weeks) was 708.6 M/L × 10^10. The “Mean Antibody Level-^125I-HCG” value (HCG [3]; as E193, 11 weeks) was 628.5 M/L × 10^10, the “Mean Antibody Level-^125I-HCG” value (HCG [3]; as E193, 12 weeks) was 398.5 M/L × 10^10 and the “HCG antibody levels compared with rabbits receiving adjuvants CGP 16940 and 12908” value (HCG [3]; in vivo) was “significantly greater”. The “Mean Antibody Level-^125I-HCG” value (HCG [3]; in vivo) was 16.3 M/L × 10^10.

For `CCC(NC(=O)COC1C(O)C(CO)OC(O)C1NC(C)=O)C(=O)NC(CCC(=O)O)C(N)=O` [CGP 14767, NAc-nor-Mur-L-Abu-D.isoGln], the “Antibody level to Structure (XII)” value [1] was 53.0 ng/mL, the “Antibody level to Structure (XII)” value ([1]; C3H/He mice, same conjugate) was 74.9 ng/mL and the “Antibody level to Structure (XII)” value ([1]; DBA/1 mice, same conjugate) was 22.2 ng/mL. The “Antibody level to Structure (XII)” value ([1]; SJL mice, same conjugate) was 91.6 ng/mL, the “Antibody level to CG” value (HCG [2]) was 21.0 ng/mL and the “Antibody level to CG” value (HCG [2]; C3H/He mice, same conjugate) was 21.4 ng/mL. For the same compound, the “Antibody level to CG” value (HCG [2]; DBA mice, same conjugate) was 11.1 ng/mL and the “Antibody level to CG” value (HCG [2]; SJL mice, same conjugate) was 5.4 ng/mL.

With `CCCCCCCCCCCCCCCCCC(=O)OCC1OC(O)C(NC(C)=O)C(OC(C)C(=O)NC(C)C(=O)NC(CCC(=O)O)C(N)=O)C1O` (stereo not shown) [CGP 18177, NAc-Mur (6-0-stearoyl)-LAla-D.isoGln] the “Mean Antibody Level-^125I-HCG” value (HCG [3]; as E193, 4 weeks) was 215.1 M/L × 10^10, the “Mean Antibody Level-^125I-HCG” value (HCG [3]; as E193, 5 weeks) was 204.6 M/L × 10^10 and the “Mean Antibody Level-^125I-HCG” value (HCG [3]; as E193, 6 weeks) was 218.2 M/L × 10^10. For the same compound, the “Mean Antibody Level-^125I-HCG” value (HCG [3]; as E193, 7 weeks) was 441.9 M/L × 10^10, the “Mean Antibody Level-^125I-HCG” value (HCG [3]; as E193, 8 weeks) was 544.9 M/L × 10^10 and the “Mean Antibody Level-^125I-HCG” value (HCG [3]; as E193, 9 weeks) was 456.2 M/L × 10^10. The “Mean Antibody Level-^125I-HCG” value (HCG [3]; as E193, 10 weeks) was 631.0 M/L × 10^10, the “Mean Antibody Level-^125I-HCG” value (HCG [3]; as E193, 11 weeks) was 584.0 M/L × 10^10 and the “Mean Antibody Level-^125I-HCG” value (HCG [3]; as E193, 12 weeks) was 270.0 M/L × 10^10. The “Mean Antibody Level-^125I-HCG” value (HCG [3]; in vivo) was 19.9 M/L × 10^10.

With `CCCCCCCCCCCCCCCCCC(=O)OCC1OC(O)C(NC(C)=O)C(OCC(=O)NC(C)C(=O)NC(CCC(=O)O)C(N)=O)C1O` (stereo not shown) [CGP 18741, NAc-ner-Mur (6-0-stearoyl)-L.Ala-D.isoGln] the “Mean Antibody Level-^125I-HCG” value (HCG [3]; as E193, 4 weeks) was 9.8 M/L × 10^10, the “Mean Antibody Level-^125I-HCG” value (HCG [3]; as E193, 5 weeks) was 6.2 M/L × 10^10 and the “Mean Antibody Level-^125I-HCG” value (HCG [3]; as E193, 6 weeks) was 8.9 M/L × 10^10. The “Mean Antibody Level-^125I-HCG” value (HCG [3]; as E193, 7 weeks) was 81.1 M/L × 10^10, the “Mean Antibody Level-^125I-HCG” value (HCG [3]; as E193, 8 weeks) was 75.4 M/L × 10^10 and the “Mean Antibody Level-^125I-HCG” value (HCG [3]; as E193, 9 weeks) was 74.9 M/L × 10^10. For the same compound, the “Mean Antibody Level-^125I-HCG” value (HCG [3]; as E193, 10 weeks) was 121.8 M/L × 10^10, the “Mean Antibody Level-^125I-HCG” value (HCG [3]; as E193, 11 weeks) was 156.8 M/L × 10^10 and the “Mean Antibody Level-^125I-HCG” value (HCG [3]; as E193, 12 weeks) was 97.6 M/L × 10^10. For the same compound, the “Mean Antibody Level-^125I-HCG” value (HCG [3]; in vivo) was 5.9 M/L × 10^10.

In the case of “Conjugate (TCDDPRFQDSSSSKAPPPSLPSPSRLPGPSDTPILPQ; also: conjugated to foreign carrier; listed as Homo sapiens)”, the “Fertility Rate (%)” value (female baboons; mating cycle 1) was 0%, the “No. Pregnant” value (female baboons; mating cycle 1) was 0 and the “Fertility Rate (%)” value (female baboons; mating cycle 2) was 6.7%. The “No. Pregnant” value (female baboons; mating cycle 2) was 1, the “Fertility Rate (%)” value (female baboons; mating cycle 3) was 7.1% and the “No. Pregnant” value (female baboons; mating cycle 3) was 1. The “Fertility Rate (%)” value (female baboons; totals of mating cycles 1-3) was 4.6%, the “No. Pregnant” value (female baboons; totals of mating cycles 1-3) was 2 and the “Survival Rate - %” value (Friends' Leukemia Virus; 0 days after inoculation with Friends' Leukemia Virus) was 100.0%. The “Survival Rate - %” value (Friends' Leukemia Virus; 22 days after inoculation) was 100.0%, the “Survival Rate - %” value (Friends' Leukemia Virus; 29 days after inoculation) was 100.0% and the “Survival Rate - %” value (Friends' Leukemia Virus; 98 days after inoculation (day of booster immunization)) was 100.0%. The “Survival Rate - %” value (Friends' Leukemia Virus; 160 days after inoculation) was 100.0%, the “Survival Rate - %” value (Friends' Leukemia Virus; 163 days after inoculation (day of booster immunization)) was 100.0% and the “Survival Rate - %” value (Friends' Leukemia Virus; 166 days after inoculation) was 100.0%. For the same compound, the “Survival Rate - %” value (Friends' Leukemia Virus; 175 days after inoculation) was 100.0%, the “Survival Rate - %” value (Friends' Leukemia Virus; 180 days after inoculation) was 100.0% and the “Mean Tumor Volume - cm^3” value ([4]; day 22 of tumor growth) was 0.65 cm^3. For the same compound, the “Mean Tumor Volume - cm^3” value ([4]; day 26 of tumor growth) was 0.68 cm^3, the “Mean Tumor Volume - cm^3” value ([4]; day 29 of tumor growth) was 1.20 cm^3 and the “Mean Tumor Volume - cm^3” value ([4]; day 31 of tumor growth) was 2.24 cm^3. For the same compound, the “Mean Tumor Volume - cm^3” value ([4]; day 33 of tumor growth) was 3.04 cm^3, the “Mean Tumor Volume - cm^3” value ([4]; day 36 of tumor growth) was 3.14 cm^3 and the “Mean Tumor Volume - cm^3” value ([4]; day 38 of tumor growth) was 4.40 cm^3. The “Mean Tumor Volume - cm^3” value ([4]; day 40 of tumor growth) was 5.54 cm^3 and the “Mean Tumor Volume - cm^3” value ([4]; day 43 of tumor growth) was 5.00 cm^3.
